This note sets out measurements from PubChem BioAssay AID192 (DTP/NCI, 2004).

Inconclusive results and toxic doses are left out.

This experiment deals with BDF1 mice, B16 melanoma ip, median survival T/C. Kind of experiment: NCI In Vivo Anticancer Drug Screen. Data for tumor model B16 Melanoma (intraperitoneal) in B6D2F1 (BDF1) mice. The note with it: endpoint: median survival time, higher = longer survival. The method, boiled down:
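Each result divides a survival or tumor-size measurement in the compound-treated group by the same measurement in the vehicle group.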

Setting [1] is: dose: 50.0 mg/kg/injection, schedule: Q04DX003 (ip), vehicle: saline.
[2] abbreviates: dose: 100.0 mg/kg/injection, schedule: Q04DX003 (ip), vehicle: saline.
Where [3] appears, read: dose: 25.0 mg/kg/injection, schedule: Q01DX009 (ip), vehicle: saline with Tween-80.
[4] abbreviates: dose: 100.0 mg/kg/injection, schedule: Q01DX009 (ip), vehicle: Klucel (hydroxypropylcellulose) (HPC).
Setting [5] is: dose: 200.0 mg/kg/injection, schedule: Q01DX009 (ip), vehicle: Klucel (hydroxypropylcellulose) (HPC).
[6] abbreviates: dose: 400.0 mg/kg/injection, schedule: Q01DX009 (ip), vehicle: Klucel (hydroxypropylcellulose) (HPC).
[7] abbreviates: dose: 1.5 mg/kg/injection, schedule: Q04DX003 (ip), vehicle: saline with Tween-80.
Setting [8] is: dose: 12.5 mg/kg/injection, schedule: Q01DX009 (ip), vehicle: Klucel (hydroxypropylcellulose) (HPC).
[9] abbreviates: dose: 25.0 mg/kg/injection, schedule: Q01DX009 (ip), vehicle: Klucel (hydroxypropylcellulose) (HPC).
The mark [10] stands for this setting: dose: 50.0 mg/kg/injection, schedule: Q01DX009 (ip), vehicle: Klucel (hydroxypropylcellulose) (HPC).

With `O=S(O)OS(=O)O`, the T/C under setting [1] is 101 % of control; the T/C under setting [2] is 101 % of control; the T/C (dose: 200.0 mg/kg/injection, schedule: Q04DX003 (ip), vehicle: saline) is 94 % of control.
As to `CC1(C)N=C(N)N=C(N)N1c1cccc(C#N)c1`, the T/C (dose: 25.0 mg/kg/injection, schedule: Q01DX005 (ip), vehicle: saline) was 95 % of control; the T/C (dose: 50.0 mg/kg/injection, schedule: Q01DX005 (ip), vehicle: saline) is 100 % of control; the T/C under setting [1] is 115 % of control; the T/C (dose: 100.0 mg/kg/injection, schedule: Q01DX005 (ip), vehicle: saline) was 104 % of control; the T/C under setting [2] was 93 % of control.
As to `N#Cc1ncc(C(Cl)Cl)nc1Cl`, the T/C (dose: 3.13 mg/kg/injection, schedule: Q01DX009 (ip), vehicle: saline + alcohol) is 96 % of control; the T/C (dose: 6.25 mg/kg/injection, schedule: Q01DX009 (ip), vehicle: saline + alcohol) was 91 % of control; the T/C (dose: 12.5 mg/kg/injection, schedule: Q01DX009 (ip), vehicle: saline + alcohol) is 93 % of control; the T/C (dose: 25.0 mg/kg/injection, schedule: Q01DX009 (ip), vehicle: saline + alcohol) is 89 % of control; the T/C under setting [3] is 94 % of control.
On to `CCCCCCCCC(=O)CCCCCC`, for which the T/C is, setting by setting: under setting [4], 100 % of control; under setting [5], 96 % of control; under setting [6], 104 % of control.
Take `CC(CC(C)O)=NCCN=C(C)CC(C)O.[Ni]` (stereo not given): the T/C is 108 % of control under setting [7]; 100 % of control (dose: 2.0 mg/kg/injection, schedule: Q04DX003 (ip), vehicle: saline with Tween-80); 94 % of control (dose: 3.0 mg/kg/injection, schedule: Q04DX003 (ip), vehicle: saline with Tween-80); 86 % of control (dose: 4.5 mg/kg/injection, schedule: Q04DX003 (ip), vehicle: saline with Tween-80).
In the case of `Cc1cc(C)cc(OC(=O)/C=C/C(=O)Oc2cc(C)cc(C)c2)c1`, the T/C reads like this: under setting [3], 98 % of control; (dose: 50.0 mg/kg/injection, schedule: Q01DX009 (ip), vehicle: saline with Tween-80) 87 % of control; (dose: 100.0 mg/kg/injection, schedule: Q01DX009 (ip), vehicle: saline with Tween-80) 93 % of control.
As to `CCN(C(=O)COc1ccc(Cl)cc1)c1ccccc1C`, the T/C was 96 % of control under setting [4], 106 % of control under setting [5] and 96 % of control under setting [6].
Consider `OCCCCc1nccc2c1[nH]c1ccccc12`, for which the T/C by setting is: under setting [8], 97 % of control; under setting [9], 95 % of control; under setting [10], 95 % of control; under setting [4], 96 % of control.
Take `CC(=O)C1(O)Cc2c(O)c3c(c(O)c2C(OC2CC(N)C(O)C(C)O2)C1)C(=O)c1ccccc1C3=O` (stereo not given): the T/C by setting is: (dose: 0.16 mg/kg/injection, schedule: Q01DX001 (ip), vehicle: water) 117 % of control; (dose: 0.31 mg/kg/injection, schedule: Q01DX001 (ip), vehicle: water) 121 % of control; (dose: 0.63 mg/kg/injection, schedule: Q01DX001 (ip), vehicle: water) 123 % of control; (dose: 1200.0 micrograms/kg/injection, schedule: Q04DX003 (ip), vehicle: water) 94 % of control.
Turning to `COC(=O)c1cc(Cl)ccc1OCC(=O)Nc1ccc([N+](=O)[O-])cc1`, the T/C reads like this: under setting [10], 100 % of control; under setting [4], 100 % of control.
For the compound `Cc1ccc(NC(=O)Nc2ccccc2C)c(C)c1`, the T/C is, setting by setting: under setting [10], 115 % of control; under setting [4], 115 % of control; under setting [5], 118 % of control.
On to `O=C1c2ccccc2C(=O)c2c(NCCNCCNCCO)ccc(NCCNCCNCCO)c21`, for which the T/C is 97 % of control (dose: 8.0 mg/kg/injection, schedule: Q01DX009 (ip), vehicle: acid diluted with saline); 101 % of control (dose: 16.0 mg/kg/injection, schedule: Q01DX009 (ip), vehicle: acid diluted with saline); 103 % of control (dose: 32.0 mg/kg/injection, schedule: Q01DX009 (ip), vehicle: acid diluted with saline); 100 % of control (dose: 64.0 mg/kg/injection, schedule: Q01DX009 (ip), vehicle: acid diluted with saline); 98 % of control (dose: 128.0 mg/kg/injection, schedule: Q01DX009 (ip), vehicle: acid diluted with saline).
As for `C/C(=N\[N+](C)(C)C)c1ccc2ccccc2c1`, the T/C under setting [9] is 93 % of control and the T/C under setting [10] was 100 % of control.
Turning to `Cc1nn(-c2ccccc2)c(N)c1C#N`, the T/C by setting is: under setting [9], 100 % of control; under setting [10], 93 % of control; under setting [4], 103 % of control.
Take `CC(=O)ON1C(=O)C=CC1=O`: the T/C is 92 % of control (dose: 3.13 mg/kg/injection, schedule: Q01DX009 (ip), vehicle: water); 103 % of control (dose: 6.25 mg/kg/injection, schedule: Q01DX009 (ip), vehicle: water); 106 % of control (dose: 12.5 mg/kg/injection, schedule: Q01DX009 (ip), vehicle: water); 87 % of control (dose: 25.0 mg/kg/injection, schedule: Q01DX009 (ip), vehicle: water).
`CCCC1=NNc2n[nH]c(=S)n2N1`: the T/C is, setting by setting: under setting [8], 106 % of control; under setting [9], 112 % of control; under setting [10], 87 % of control.
As to `CC1(C)NC(=O)C(/C=C/c2ccccc2)O1` (stereo not given), the T/C reads like this: (dose: 6.25 mg/kg/injection, schedule: Q01DX009 (ip), vehicle: Klucel (hydroxypropylcellulose) (HPC)) 96 % of control; under setting [8], 109 % of control; under setting [9], 121 % of control; under setting [4], 112 % of control; under setting [5], 86 % of control.
As for `Oc1ccc(C2CCc3ccccc32)cc1` (stereo not given), the T/C reads like this: under setting [4], 96 % of control; under setting [5], 96 % of control; under setting [6], 100 % of control.
In the case of `CC1(C)N=C(N)N=C(N)N1c1cccc(CCCCOc2ccccc2)c1`, the T/C was 95 % of control (dose: 3.13 mg/kg/injection, schedule: Q01DX009 (ip), vehicle: saline with Tween-80); 109 % of control (dose: 3.13 mg/kg/injection, schedule: Q04DX003 (ip), vehicle: saline with Tween-80); 102 % of control (dose: 6.25 mg/kg/injection, schedule: Q01DX009 (ip), vehicle: saline with Tween-80); 109 % of control (dose: 6.25 mg/kg/injection, schedule: Q04DX003 (ip), vehicle: saline with Tween-80); 102 % of control (dose: 12.5 mg/kg/injection, schedule: Q01DX009 (ip), vehicle: saline with Tween-80); 107 % of control (dose: 12.5 mg/kg/injection, schedule: Q04DX003 (ip), vehicle: saline with Tween-80).
Take `On1cnc(=S)c2[nH]cnc21`: the T/C (dose: 100.0 mg/kg/injection, schedule: Q01DX009 (ip), vehicle: saline sonified) is 106 % of control; the T/C (dose: 200.0 mg/kg/injection, schedule: Q01DX009 (ip), vehicle: saline sonified) is 104 % of control; the T/C (dose: 400.0 mg/kg/injection, schedule: Q01DX009 (ip), vehicle: saline sonified) is 90 % of control.
In the case of `[Cl][Pt+2][Cl].[NH-]CC1(C[NH-])CCCCC1`, the T/C runs as follows: (dose: 1.5 mg/kg/injection, schedule: Q01DX009 (ip), vehicle: saline) 190 % of control; (dose: 3.0 mg/kg/injection, schedule: Q01DX009 (ip), vehicle: saline) 208 % of control; (dose: 6.0 mg/kg/injection, schedule: Q01DX009 (ip), vehicle: saline) 208 % of control.
For the compound `O=C(O)/C(Cl)=C(/Cl)C(Cl)=C(Cl)Cl`, the T/C under setting [3] was 95 % of control.
`O=C(O)c1ccccc1C(=O)c1ccc(CBr)cc1`: the T/C was 100 % of control (dose: 0.05 mg/kg/injection, schedule: Q01DX009 (ip), vehicle: saline); 97 % of control (dose: 0.1 mg/kg/injection, schedule: Q01DX009 (ip), vehicle: saline); 100 % of control (dose: 0.2 mg/kg/injection, schedule: Q01DX009 (ip), vehicle: saline); 91 % of control (dose: 0.38 mg/kg/injection, schedule: Q04DX003 (ip), vehicle: saline with Tween-80); 95 % of control (dose: 0.75 mg/kg/injection, schedule: Q04DX003 (ip), vehicle: saline with Tween-80); 87 % of control (dose: 1.5 mg/kg/injection, schedule: Q01DX009 (ip), vehicle: saline with Tween-80). For the same compound, the T/C under setting [7] was 100 % of control and the T/C (dose: 1.56 mg/kg/injection, schedule: Q04DX003 (ip), vehicle: saline with Tween-80) was 100 % of control.
